Measured values as given in patent US20080207600A1, “Pharmaceutical Combination for the Treatment of Cns Functional Disorders” (priority 2004, published 2008).
Marks after values point to notes of the source that are not given here.

Test system: spontaneous motion activity of rats
Assay: Depression of spontaneous motion activity (SMA) in "open field" test
Type: in vivo
Details: for Spontaneous activity (total values) b) after haloperidol administration: rats, i/p., open field 2 minutes, 10 minutes after administration, M±σ
Excerpt: The presently-known clinical methods of haloperidol administration are: intravenous, intramuscular and oral. […] In theory, it is possible to improve the efficacy of the medicine, to reduce the single-administration dosage (through elimination of the effect of “first passage” through the liver) and to alleviate adverse somatic side effects.
The Applicant used pharmacological combination of intraperitoneally (i/p.) administered haloperidol with nasally applied CO-generating composition.
The experiments were performed on 24 puberty-age white rats (of no particular breed), body mass: 100-120 grams. Depression in SMA of the animals, as produced by i/p. drug administration, was compared with SMA depression produced by i/p. administration combined with nasal administration of CO-generating composition on the basis of a hem-oxygenase enzyme form. SMA of each animal was evaluated as total sum of values obtained within 2 minutes of “open field” test (in terms of the number of poles/supports, number of ring exercises and cleanings), prior to drug administration, and 10 minutes after drug administration.
The experimental animals were subdivided into 4 groups:
Group No. 1: controls (6 animals), no exposure;
Group No. 2: haloperidol (7 animals), i/p., 0.2 mg/kg;
Group No. 3: haloperidol (5 animals), i/p., 0.05 mg/kg;
Group No. 4: haloperidol (6 animals), i/p., 0.05 mg/kg, in pharmacological combination with CO-generating composition.
Haloperidol was administered by i/p. route within the physiological solution; CO-generating composition was administered nasally.

[1] = preliminary studies, intraperitoneal, 0.2 mg/kg

For `O=C(CCCN1CCC(O)(c2ccc(Cl)cc2)CC1)c1ccc(F)cc1` [haloperidol], the “Persistence of haloperidol-dependant depression in motive responses” value [1] was 53.5 ± 7.7 min, the “Time to development of haloperidol-dependant depression in motive responses” value [1] was 4.2 ± 1.8 min and the “Spontaneous activity (total values) b) after haloperidol administration” value (0.05 mg/kg) was 24 ± 3**^). For the same compound, the “Spontaneous activity (total values) b) after haloperidol administration” value (0.2 mg/kg) was 3 ± 1*^).
